{
  "source": "ChEMBL document CHEMBL5241100",
  "about": "“Sulfonamide derivatives as potential anti-cancer agents and their SARs elucidation” (Eur J Med Chem, 2021)",
  "key": {"Carbonic anhydrase 9 [1]": {"biological_target": "T1, Carbonic anhydrase 9 (Homo sapiens, UniProt Q16790)"}, "HSC-2": {"system": "HSC-2", "assay": "Cytotoxicity against human HSC-2 cells assessed as reduction in cell viability by MTT assay", "format": "functional"}, "Carbonic anhydrase 2": {"biological_target": "Carbonic anhydrase 2 (Homo sapiens, UniProt P00918)", "assay": "Inhibition of human CA2"}, "Carbonic anhydrase 12": {"biological_target": "Carbonic anhydrase 12 (Homo sapiens, UniProt O43570)", "sequence (O43570 whole entry)": "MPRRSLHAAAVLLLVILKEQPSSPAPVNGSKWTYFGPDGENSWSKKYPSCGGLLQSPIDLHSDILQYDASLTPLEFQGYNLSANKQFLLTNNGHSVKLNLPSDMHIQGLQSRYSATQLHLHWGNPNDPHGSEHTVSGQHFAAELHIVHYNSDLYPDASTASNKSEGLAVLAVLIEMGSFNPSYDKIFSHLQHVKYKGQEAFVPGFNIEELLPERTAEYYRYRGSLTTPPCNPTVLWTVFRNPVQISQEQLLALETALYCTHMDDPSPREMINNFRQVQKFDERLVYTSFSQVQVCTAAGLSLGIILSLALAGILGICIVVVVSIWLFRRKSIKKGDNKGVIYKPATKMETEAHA", "assay": "Inhibition of human CA12"}, "Carbonic anhydrase 9 [2]": {"biological_target": "T1, Carbonic anhydrase 9", "assay": "Inhibition of human CA9"}, "Ca9-22": {"system": "Ca9-22", "assay": "Cytotoxicity against human Ca9-22 cells assessed as reduction in cell viability by MTT assay", "format": "functional"}, "Carbonic anhydrase 1": {"biological_target": "Carbonic anhydrase 1 (Homo sapiens, UniProt P00915)", "sequence (P00915 whole entry)": "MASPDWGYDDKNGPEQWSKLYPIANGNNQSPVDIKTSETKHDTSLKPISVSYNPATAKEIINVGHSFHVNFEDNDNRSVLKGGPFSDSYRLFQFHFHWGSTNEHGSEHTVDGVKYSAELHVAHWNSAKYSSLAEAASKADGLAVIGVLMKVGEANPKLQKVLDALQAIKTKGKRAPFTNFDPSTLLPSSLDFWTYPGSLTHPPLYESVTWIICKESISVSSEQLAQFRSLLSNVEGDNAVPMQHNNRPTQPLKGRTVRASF", "assay": "Inhibition of human CA1"}, "HCT-116": {"system": "HCT-116", "assay": "cells", "conditions": "Homo sapiens, HCT-116, 48 h"}, "[3]": {"assay": "Oral bioavailability in mouse", "format": "ADME, organism-based", "conditions": "in vivo"}, "[4]": {"biological_target": "T2, Induced myeloid leukemia cell differentiation protein Mcl-1 (Homo sapiens, UniProt Q07820)", "T2 sequence (Q07820 whole entry, the tested form may be a part)": "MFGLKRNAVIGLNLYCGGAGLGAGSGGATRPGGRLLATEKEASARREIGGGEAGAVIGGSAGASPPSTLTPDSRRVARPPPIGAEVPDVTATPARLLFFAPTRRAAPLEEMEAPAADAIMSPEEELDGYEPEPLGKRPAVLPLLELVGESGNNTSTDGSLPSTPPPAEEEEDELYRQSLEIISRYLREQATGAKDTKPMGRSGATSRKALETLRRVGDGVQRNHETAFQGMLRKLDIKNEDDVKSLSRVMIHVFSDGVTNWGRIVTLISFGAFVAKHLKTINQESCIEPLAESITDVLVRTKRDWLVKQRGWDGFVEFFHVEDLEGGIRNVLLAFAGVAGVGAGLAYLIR", "assay": "Inhibition of TAMRA-labeled BIM-BH3 peptide binding to 6His-tagged human recombinant Mcl-1 (171 to 327 residues) incubated for 120 mins by fluorescence polarization assay"}, "KG-1": {"system": "KG-1", "format": "functional, cell-based", "conditions": "Homo sapiens, KG-1, 72 h"}, "RS4-11": {"system": "RS4-11", "format": "functional, cell-based", "conditions": "Homo sapiens, RS4-11, 72 h"}, "HL-60": {"system": "HL-60", "format": "functional, cell-based", "conditions": "Homo sapiens, HL-60, 72 h"}, "[5]": {"biological_target": "T2, Induced myeloid leukemia cell differentiation protein Mcl-1", "assay": "Inhibition of fluorescent-labeled BID-BH3 peptide binding to Mcl-1 (unknown origin) by fluorescence polarization assay"}, "Jurkat": {"system": "Jurkat", "format": "functional, cell-based", "conditions": "Homo sapiens, 72 h"}, "MOLT-4": {"system": "MOLT-4", "format": "functional, cell-based", "conditions": "Homo sapiens, MOLT-4, 72 h"}, "[6]": {"biological_target": "Apoptosis regulator Bcl-2 (Homo sapiens, UniProt P10415)", "sequence (P10415 whole entry)": "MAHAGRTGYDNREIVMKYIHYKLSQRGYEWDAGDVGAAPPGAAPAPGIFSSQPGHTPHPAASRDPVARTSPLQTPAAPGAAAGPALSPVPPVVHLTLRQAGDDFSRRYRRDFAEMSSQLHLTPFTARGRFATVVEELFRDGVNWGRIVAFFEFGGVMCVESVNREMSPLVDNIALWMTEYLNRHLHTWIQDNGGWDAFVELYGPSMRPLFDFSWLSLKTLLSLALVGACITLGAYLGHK", "assay": "Inhibition of fluorescent-labeled BID-BH3 peptide binding to Bcl-2 (unknown origin) by fluorescence polarization assay"}, "[7]": {"biological_target": "T2, Induced myeloid leukemia cell differentiation protein Mcl-1", "assay": "Inhibition of fluorescent-labeled BID-BH3 peptide binding to Mcl-1 (unknown origin) incubated for 20 mins by fluorescence polarization assay"}, "Carbonic anhydrase 9 [8]": {"biological_target": "T1, Carbonic anhydrase 9", "assay": "Inhibition of carbonic anhydrase 9 (unknown origin) using 4-nitrophenylacetate as substrate by UV/visible spectrophotometer analysis"}, "DNA topoisomerase 1": {"biological_target": "DNA topoisomerase 1 (Homo sapiens, UniProt P11387)", "sequence (P11387 whole entry)": "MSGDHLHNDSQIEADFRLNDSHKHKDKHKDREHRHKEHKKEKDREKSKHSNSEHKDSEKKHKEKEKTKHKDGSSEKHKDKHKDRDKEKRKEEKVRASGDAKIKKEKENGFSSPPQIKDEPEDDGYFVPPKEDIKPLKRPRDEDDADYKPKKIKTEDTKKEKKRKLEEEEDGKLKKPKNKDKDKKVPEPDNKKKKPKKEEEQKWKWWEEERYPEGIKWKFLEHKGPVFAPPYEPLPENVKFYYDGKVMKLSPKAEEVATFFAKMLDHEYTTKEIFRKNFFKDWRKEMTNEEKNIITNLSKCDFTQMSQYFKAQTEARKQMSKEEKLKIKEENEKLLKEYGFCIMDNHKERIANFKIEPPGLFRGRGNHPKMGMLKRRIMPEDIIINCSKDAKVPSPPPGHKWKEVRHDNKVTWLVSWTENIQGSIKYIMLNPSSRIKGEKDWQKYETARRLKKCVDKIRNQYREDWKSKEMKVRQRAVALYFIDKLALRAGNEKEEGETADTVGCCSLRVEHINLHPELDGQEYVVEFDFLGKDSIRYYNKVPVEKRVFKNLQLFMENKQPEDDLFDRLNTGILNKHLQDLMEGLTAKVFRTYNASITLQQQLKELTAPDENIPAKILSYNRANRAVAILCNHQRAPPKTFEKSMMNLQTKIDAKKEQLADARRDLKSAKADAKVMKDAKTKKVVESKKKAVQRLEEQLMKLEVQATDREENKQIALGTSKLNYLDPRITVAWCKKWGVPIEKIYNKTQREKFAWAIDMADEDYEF", "assay": "Inhibition of topoisomerase 1 (unknown origin) assessed as relaxation of supercoiled […] incubated for 30 mins ethidium bromide staining based UV transilluminator analysis"}, "[9]": {"assay": "Inhibition of topoisomerase 2 (unknown origin) assessed as relaxation of supercoiled kDNA incubated for 30 mins ethidium bromide staining based UV transilluminator analysis", "parameters": "species or system Homo sapiens"}, "Aromatase": {"biological_target": "Aromatase (Homo sapiens, UniProt P11511)", "sequence (P11511 whole entry)": "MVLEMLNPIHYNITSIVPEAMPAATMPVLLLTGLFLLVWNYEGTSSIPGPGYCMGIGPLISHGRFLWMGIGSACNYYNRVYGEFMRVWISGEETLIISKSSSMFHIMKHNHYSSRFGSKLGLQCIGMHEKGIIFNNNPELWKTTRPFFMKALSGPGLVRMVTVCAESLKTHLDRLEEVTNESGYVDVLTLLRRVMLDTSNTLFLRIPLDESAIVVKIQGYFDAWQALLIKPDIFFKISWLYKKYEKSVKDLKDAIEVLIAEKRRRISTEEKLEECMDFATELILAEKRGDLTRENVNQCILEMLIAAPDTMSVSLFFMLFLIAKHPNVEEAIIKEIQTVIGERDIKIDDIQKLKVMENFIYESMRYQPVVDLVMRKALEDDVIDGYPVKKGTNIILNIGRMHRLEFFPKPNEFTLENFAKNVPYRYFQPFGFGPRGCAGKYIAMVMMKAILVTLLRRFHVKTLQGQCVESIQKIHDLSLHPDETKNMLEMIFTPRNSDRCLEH", "assay": "Inhibition of human aromatase preincubated with NADPH regenerating system for 10 mins followed by substrate addition by fluorescence based analysis"}, "HepG2": {"system": "HepG2", "assay": "Antiproliferative activity against human HepG2 cells assessed as inhibition of cell growth by SRB assay", "format": "functional, cell-based"}, "A-375": {"system": "A-375", "assay": "Cytotoxicity against human A-375 cells assessed as inhibition of cell growth", "format": "functional"}, "[10]": {"biological_target": "T2, Induced myeloid leukemia cell differentiation protein Mcl-1", "assay": "Inhibition of FITC-labeled BID-BH3 peptide binding to Mcl-1 (unknown origin) by fluorescence polarization assay"}, "MOLM-13": {"system": "MOLM-13", "assay": "Antitumor activity against human MOLM-13 cells xenografted in mouse assessed as tumor growth inhibition administered with carfilzomib", "format": "functional"}, "OPM-2": {"system": "OPM-2", "assay": "Antitumor activity against firefly luciferase-labeled human OPM-2 cells xenografted in mouse assessed as tumor growth inhibition at 20 mg/kg, po administered once daily with carfilzomib at 3 mg/kg, iv administered twice weekly and measured after 19 days", "format": "functional", "conditions": "OPM-2, 456 h, time 19 day"}, "[11]": {"assay": "Half life in iv dosed mouse", "format": "ADME, organism-based", "conditions": "in vivo"}},
  "data": [
    {"smiles": "NS(=O)(=O)c1ccc(O)cc1", "values": [
      {"measurement": "IC50", "setting": "Carbonic anhydrase 9 [1]", "result": 32, "unit": "µM"}
    ]},
    {"smiles": "COc1cc(C2CC(c3cccs3)=NN2c2ccc(S(N)(=O)=O)cc2)cc(OC)c1OC", "note": "(stereo not given)", "values": [
      {"measurement": "CC50", "setting": "HSC-2", "result": 6.3, "unit": "µM"},
      {"measurement": "Ki", "setting": "Carbonic anhydrase 2", "result": 0.089, "unit": "µM"},
      {"measurement": "Ki", "setting": "Carbonic anhydrase 12", "result": "≥ 0.009", "unit": "µM"},
      {"measurement": "Ki", "setting": "Carbonic anhydrase 9 [2]", "result": "≥ 0.044", "unit": "µM"},
      {"measurement": "CC50", "setting": "Ca9-22", "result": 6.3, "unit": "µM"},
      {"measurement": "Ki", "setting": "Carbonic anhydrase 1", "result": "≥ 0.23", "unit": "µM"}
    ]},
    {"smiles": "NS(=O)(=O)c1ccc(CC/N=C2\\NC(=O)/C(=C3/C(=O)Nc4ccc(F)cc43)S2)cc1", "values": [
      {"measurement": "IC50", "setting": "HCT-116", "result": 3.67, "unit": "µM"}
    ]},
    {"smiles": "CC[C@@H]1CC/C=C/[C@H](O)[C@@H]2CC[C@H]2CN2C[C@@]3(CCCc4cc(Cl)ccc43)COc3ccc(cc32)C(=O)NS1(=O)=O", "values": [
      {"measurement": "bioavailability", "setting": "[3]", "result": 6, "unit": "%"}
    ]},
    {"smiles": "COc1cc(C2CC(c3ccc(F)cc3)=NN2c2ccc(S(N)(=O)=O)cc2)cc(OC)c1OC", "note": "(stereo not given)", "values": [
      {"measurement": "CC50", "setting": "HSC-2", "result": 6.3, "unit": "µM"},
      {"measurement": "Ki", "setting": "Carbonic anhydrase 2", "result": 0.089, "unit": "µM"},
      {"measurement": "Ki", "setting": "Carbonic anhydrase 12", "result": "≥ 0.009", "unit": "µM"},
      {"measurement": "Ki", "setting": "Carbonic anhydrase 9 [2]", "result": "≥ 0.044", "unit": "µM"},
      {"measurement": "CC50", "setting": "Ca9-22", "result": 6.3, "unit": "µM"},
      {"measurement": "Ki", "setting": "Carbonic anhydrase 1", "result": "≥ 0.23", "unit": "µM"}
    ]},
    {"smiles": "CO[C@@H]1O[C@H](Cn2cc(COc3ccc(S(N)(=O)=O)cc3)nn2)[C@@H](O)[C@H](O)[C@H]1O", "values": [
      {"measurement": "IC50", "setting": "Carbonic anhydrase 9 [1]", "result": 0.007, "unit": "µM"}
    ]},
    {"smiles": "O=C1NSCCOCCCCCCN2C[C@@]3(CCc4cc(Cl)ccc43)COc3ccc1cc32", "values": [
      {"measurement": "IC50", "setting": "[4]", "result": 0.01, "unit": "µM"}
    ]},
    {"smiles": "O=C(NS(=O)(=O)c1ccc(Cl)c([N+](=O)[O-])c1)[C@@H]1Cc2cc(Br)c(OCc3ccc(-c4ccccc4)cc3)c(Br)c2CC1Cc1ccc([N+](=O)[O-])cc1", "note": "(stereo not given in full)", "values": [
      {"measurement": "IC50", "setting": "KG-1", "result": 12.8, "unit": "µM"},
      {"measurement": "IC50", "setting": "RS4-11", "result": 12.8, "unit": "µM"},
      {"measurement": "IC50", "setting": "HL-60", "result": 12.8, "unit": "µM"},
      {"measurement": "Ki", "setting": "[5]", "result": 0.26, "unit": "µM"},
      {"measurement": "IC50", "setting": "Jurkat", "result": 12.8, "unit": "µM"},
      {"measurement": "IC50", "setting": "MOLT-4", "result": 12.8, "unit": "µM"},
      {"measurement": "Ki", "setting": "[6]", "result": 0.41, "unit": "µM"}
    ]},
    {"smiles": "O=C(NS(=O)(=O)c1ccc(Cl)c([N+](=O)[O-])c1)c1nn(Cc2ccc(Cl)c(Cl)c2)c2ccccc12", "values": [
      {"measurement": "Ki", "setting": "[7]", "result": 0.43, "unit": "µM"}
    ]},
    {"smiles": "CC(C)CN1C[C@H](c2ccc(Cl)cc2Cl)Oc2ccc(C(=O)O)cc21", "values": [
      {"measurement": "IC50", "setting": "[4]", "result": 2.1, "unit": "µM"}
    ]},
    {"smiles": "Nc1ccc(S(=O)(=O)Nc2ccsc2-c2nc(-c3ccccc3)no2)cc1", "values": [
      {"measurement": "IC50", "setting": "Carbonic anhydrase 9 [8]", "result": 0.74, "unit": "µM"}
    ]},
    {"smiles": "N#Cc1ccc(CC2Cc3c(cc(Br)c(OCc4ccc(-c5ccccc5)cc4)c3Br)C[C@H]2C(=O)NS(=O)(=O)c2ccc(Cl)c([N+](=O)[O-])c2)cc1", "note": "(stereo not given in full)", "values": [
      {"measurement": "IC50", "setting": "KG-1", "result": 12.8, "unit": "µM"},
      {"measurement": "IC50", "setting": "RS4-11", "result": 12.8, "unit": "µM"},
      {"measurement": "IC50", "setting": "HL-60", "result": 12.8, "unit": "µM"},
      {"measurement": "Ki", "setting": "[5]", "result": 0.35, "unit": "µM"},
      {"measurement": "IC50", "setting": "Jurkat", "result": 12.8, "unit": "µM"},
      {"measurement": "IC50", "setting": "MOLT-4", "result": 12.8, "unit": "µM"},
      {"measurement": "Ki", "setting": "[6]", "result": 0.45, "unit": "µM"}
    ]},
    {"smiles": "CC1CCN(S(=O)(=O)c2ccc(-c3ccno3)cc2)CC1", "values": [
      {"measurement": "IC50", "setting": "DNA topoisomerase 1", "result": 27.8, "unit": "µM"},
      {"measurement": "IC50", "setting": "[9]", "result": 33.6, "unit": "µM"}
    ]},
    {"smiles": "COc1cc2c(cc1OC)CN(S(=O)(=O)c1cccc(-n3cc(COc4ccc5ccccc5c4)nn3)c1)CC2", "values": [
      {"measurement": "IC50", "setting": "Aromatase", "result": 0.07, "unit": "µM"}
    ]},
    {"smiles": "CC1CCN(S(=O)(=O)c2ccc(C(=O)c3coc4ccc(O)cc34)cc2)CC1", "values": [
      {"measurement": "IC50", "setting": "HepG2", "result": 6.2, "unit": "µM"}
    ]},
    {"smiles": "Cc1cc(S(=O)(=O)N2CC(C(=O)O)Cc3ccccc32)cc(C)c1Cl", "note": "(racemic)", "values": [
      {"measurement": "GI50", "setting": "A-375", "result": 50, "unit": "µM"},
      {"measurement": "Ki", "setting": "[10]", "result": 0.12, "unit": "µM"}
    ]},
    {"smiles": "Cc1cc2c(C(C)C)c(O)c(O)c(C=O)c2c(O)c1-c1c(C)cc2c(C(C)C)c(O)c(O)c(C=O)c2c1O", "note": "[GOSSYPOL]", "values": [
      {"measurement": "Ki", "setting": "[7]", "result": 0.45, "unit": "µM"}
    ]},
    {"smiles": "CO[C@H]1/C=C/C[C@H](C)[C@@H](C)S(=O)(=O)NC(=O)c2ccc3c(c2)N(C[C@@H]2CC[C@H]21)C[C@@]1(CCCc2cc(Cl)ccc21)CO3", "note": "[TAPOTOCLAX]", "values": [
      {"measurement": "inhibition (INH)", "setting": "MOLM-13", "result": 99, "unit": "%"},
      {"measurement": "inhibition in vivo at 20 mg/kg", "setting": "OPM-2", "result": 99, "unit": "%"},
      {"measurement": "bioavailability", "setting": "[3]", "result": 32, "unit": "%"},
      {"measurement": "half-life", "setting": "[11]", "result": 14, "unit": "h"}
    ]}
  ]
}
